The results in this text go back to US8039444B2, “Antisense permeation enhancers” (Isis Pharmaceuticals, Inc., priority 2001, dated 2011).

The conditions of this data set: monkey, not told, po.

On to “GCTGATTAGAGAGAGGTCCC (GCTGATTAGAGAGAGGTCCC; chemistry not given here) [antisense oligonucleotide]”, for which the permeability result was “poor permeability”.
